The structures appear in SMILES notation. The source made the active and inactive calls. For most assays here, no stated cut-off is given here; in the data, actives have a measured EC50 and inactives only a lower limit. Some results are limits rather than exact numbers.

Experiment [1] has as its target T1, Rac GTPase-activating protein 1 (Homo sapiens, UniProt Q9H0H5).
T1 sequence (Q9H0H5 whole entry): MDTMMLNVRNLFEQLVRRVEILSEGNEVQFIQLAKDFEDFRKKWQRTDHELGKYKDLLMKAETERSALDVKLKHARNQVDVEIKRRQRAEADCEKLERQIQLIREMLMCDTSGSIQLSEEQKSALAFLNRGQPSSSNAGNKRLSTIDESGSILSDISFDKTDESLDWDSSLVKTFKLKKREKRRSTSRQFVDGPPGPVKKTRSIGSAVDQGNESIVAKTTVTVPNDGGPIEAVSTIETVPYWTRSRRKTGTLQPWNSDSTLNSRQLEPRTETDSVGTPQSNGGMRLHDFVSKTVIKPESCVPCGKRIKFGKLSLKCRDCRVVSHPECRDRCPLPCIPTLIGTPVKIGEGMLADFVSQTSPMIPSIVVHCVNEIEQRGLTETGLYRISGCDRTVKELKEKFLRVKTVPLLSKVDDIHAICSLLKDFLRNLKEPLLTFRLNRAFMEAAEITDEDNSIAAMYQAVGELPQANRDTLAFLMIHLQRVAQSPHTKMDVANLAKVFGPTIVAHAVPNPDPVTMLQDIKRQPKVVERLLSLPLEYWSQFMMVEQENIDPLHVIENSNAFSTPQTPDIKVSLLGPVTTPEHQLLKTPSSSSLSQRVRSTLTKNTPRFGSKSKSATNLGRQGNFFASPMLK
In words: MgcRacGAP GTPase-activating activity inhibitors, confirmation, biochemical, ADP Hunter fluorescence, primary and confirmatory (AID 624330). Type of experiment: functional.

Experiment [2] is described as follows: growth suppression of beta-catenin-knockout colon cells, dose response, cell-based, HCT116, human colon tumor (AID 1045).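 Further: HCT116 colon tumor cells with beta catenin knocked out; cells exposed to compound for 60 hours.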 In kind it is functional.
Experiment [3] is described as follows: Luminescence Cell-Based Dose Confirmation HTS to Identify Activators of 5'UTR Stem-Loop Driven Alpha-Synuclein mRNA Translation in H4 Neuroglioblastoma Cells. [Related pubchem assays: 1829 (Project Summary), 1814 (Primary HTS)]. In kind it is functional.
The nature of experiment [4]: Luminescence Cell-Based Dose Response HTS to Identify Activators of Luciferase Translation or Activity in H4 […] Cells. [Related pubchem assays: 1829 (Project Summary), 1814 (Primary HTS)]. In kind it is functional.
In another experiment the test system is H4. Kind of experiment: Luminescence Cell-Based Dose Response HTS to Identify Activators of 5'UTR Stem-Loop Driven Prion Protein mRNA Translation in H4 Neuroglioblastoma Cells. [Related pubchem assays: 1829 (Project Summary), 1814 (Primary HTS)]. In kind it is functional. To be noted: Homo sapiens.
Experiment [5] concerns the target T2, Corticotropin-releasing factor receptor 2/Corticotropin-releasing factor-binding protein (Homo sapiens, UniProt P24387+Q13324).
T2 sequence (Q13324 whole entry): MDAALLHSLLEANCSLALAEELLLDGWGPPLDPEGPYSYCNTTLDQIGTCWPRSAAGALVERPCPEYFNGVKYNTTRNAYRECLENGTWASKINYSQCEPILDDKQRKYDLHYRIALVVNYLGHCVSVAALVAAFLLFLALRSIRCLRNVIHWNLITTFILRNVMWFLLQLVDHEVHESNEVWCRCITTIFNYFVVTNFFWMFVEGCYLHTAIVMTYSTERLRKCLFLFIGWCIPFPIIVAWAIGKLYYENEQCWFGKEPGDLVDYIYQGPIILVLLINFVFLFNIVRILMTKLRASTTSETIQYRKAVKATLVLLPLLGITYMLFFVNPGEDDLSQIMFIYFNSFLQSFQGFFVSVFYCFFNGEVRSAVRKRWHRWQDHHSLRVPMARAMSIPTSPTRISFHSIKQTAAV
T2 sequence (P24387 whole entry): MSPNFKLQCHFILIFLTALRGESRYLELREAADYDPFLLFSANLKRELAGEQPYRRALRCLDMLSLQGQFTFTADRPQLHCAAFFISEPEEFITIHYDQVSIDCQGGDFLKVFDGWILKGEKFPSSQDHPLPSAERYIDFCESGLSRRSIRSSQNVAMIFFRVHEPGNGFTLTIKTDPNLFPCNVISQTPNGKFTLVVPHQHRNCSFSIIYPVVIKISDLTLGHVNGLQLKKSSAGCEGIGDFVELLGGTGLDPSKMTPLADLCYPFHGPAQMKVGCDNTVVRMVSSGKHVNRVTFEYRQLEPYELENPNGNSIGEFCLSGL
Kind of experiment: Dose Response confirmation of uHTS hits for small molecule antagonists of the CRF-binding protein and CRF-R2 receptor complex. To be noted: read-out: IC50_Mean. Type of experiment: functional.

For experiment [6], the target named is T2, Corticotropin-releasing factor receptor 2/Corticotropin-releasing factor-binding protein. Kind of experiment: activators of CRF receptor 2 with binding protein – uHTS hits, confirmation (AID 602473). In kind it is functional. To be noted: read-out: EC50_Mean.
Experiment [7] deals with T3, Heat shock factor protein 1 (Mus musculus, UniProt P38532).
T3 sequence (P38532 whole entry): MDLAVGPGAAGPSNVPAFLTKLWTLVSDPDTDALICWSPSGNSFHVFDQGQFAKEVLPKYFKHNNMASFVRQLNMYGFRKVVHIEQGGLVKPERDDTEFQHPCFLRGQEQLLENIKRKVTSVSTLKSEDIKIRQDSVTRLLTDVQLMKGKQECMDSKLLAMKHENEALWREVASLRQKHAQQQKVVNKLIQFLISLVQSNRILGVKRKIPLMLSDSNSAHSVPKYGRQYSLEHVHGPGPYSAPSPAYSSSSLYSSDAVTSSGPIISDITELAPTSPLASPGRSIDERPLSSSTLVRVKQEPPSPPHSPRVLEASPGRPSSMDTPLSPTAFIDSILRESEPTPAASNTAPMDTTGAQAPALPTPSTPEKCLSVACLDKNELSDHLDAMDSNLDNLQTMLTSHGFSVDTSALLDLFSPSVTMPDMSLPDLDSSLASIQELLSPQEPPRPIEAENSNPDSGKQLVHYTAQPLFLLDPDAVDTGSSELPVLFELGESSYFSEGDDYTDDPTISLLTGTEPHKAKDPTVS
Kind of experiment: inhibition of MG132-induced HSE-luciferase signal, confirmation, cell-based, NIH3T3, luminescence, dose retest (AID 2382).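 Further: NIH3T3 fibroblasts with HSF1-driven luciferase reporter stressed by proteasome inhibitor MG132; luminescence from HSF1-driven luciferase expression after 8 hours of MG132 stress.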 In kind it is functional.

The nature of experiment [8]: HEp-2 cell cytotoxicity, dose response, cytotoxicity control for RSV inhibitor project, HTS (AID 2410). To be noted: human respiratory syncytial virus. Type of experiment: functional.
A short description of experiment [9]: cells. In kind it is functional, cell-based.
Experiment [10] can be described thus: cells. In kind it is functional, cell-based. This is another data set of the same source.

As to `COCCCNC(=O)/C(C#N)=C/c1c(N2CCN(c3ccc(OC)cc3)CC2)nc2c(C)cccn2c1=O`, the IC50 in experiment [1] is 114 µM (active).
Same read-out and setting: under `CN(C)c1ccc(NC(=O)COC(=O)CNC(=O)c2cccs2)cc1` stands 45.6 µM (active); under `Fc1ccc(CN2CCN(C(c3ccccc3)c3ccccc3)CC2)cc1`, 236 µM (active).
With `CCn1c(CNc2ccc(OC)cc2)nnc1SCC(=O)c1ccc(OC)cc1`, in experiment [2], the EC50 is 470 µM (active).
As for `Cc1cccc(-n2cnc3cc(C(=O)N4CCCCC4)ccc32)c1`, the EC50 was 17.9 µM (active) in experiment [3], 7.6 µM (active) in [4] and 13.9 µM (active) in the experiment with H4.
Regarding `O=C(O)c1cc(-c2ccccc2)nc(-c2ccccc2)c1`, in experiment [5], the IC50 was > 47.1 µM (inactive). The EC50 in experiment [6] is > 53 µM (inactive).
For the compound `Cc1cc(C(c2nnnn2Cc2ccccc2)N2CCOCC2)c(C)n1-c1ccc2c(c1)OCO2` (stereo unspecified), the EC50 in [3] is 91.8 µM (active); in experiment [4] it was > 120 µM (not active); in the experiment with H4, 35.6 µM (active).
With `Cc1ccc(C)n1NC(=O)c1ccccc1O`, the values for the EC50 in experiment [7] and in experiment [6] were > 195 µM (not active) and > 53 µM (inactive), respectively. Further, in [5], the IC50 is > 47.1 µM (inactive).
As to `COc1ccccc1C(=O)N1CCN(Cc2cccnc2)CC1`, the IC50 in experiment [1] is 101 µM (active).
In the case of `N#C/C(=C\C1CC=CCC1)c1nc2ccccc2[nH]1` (stereo unspecified), in [8], the CC50 was 23.4 µM (active). The results for the EC50 (in experiment [3]; in experiment [4]; in the experiment with H4) were 21.9 µM (active), 26.3 µM (active) and 23.7 µM (active), respectively.
`Cc1ccc(Cn2nc(-c3ccccc3)nc2-c2ccccc2)cc1`: the values for the EC50 (in experiment [3]; in [4]; in the experiment with H4) were 5.09 µM (active), 20 µM (active) and 17.9 µM (active), respectively.
Taken in the same sequence, the figures for `O=C(/C=C/c1cccs1)Nc1ccc(N2CCOCC2)c(S(=O)(=O)Nc2ccccc2Cl)c1` were 12 µM (active), 46.3 µM (active) and 22.2 µM (active).
On to `COc1ccc(/C=C2\SC(=O)N(CCNC(=O)C3CCN(S(=O)(=O)c4cccs4)CC3)C2=O)cc1`, for which the EC50 in experiment [3] was 10.2 µM (active); in [4], 36.7 µM (active); in the experiment on H4, 19.1 µM (active).
Take `CC(C)(C)c1cc(C(=O)N2CCN(c3ncccn3)CC2)ccn1`: the EC50 in the experiment “cells [9]” and in “cells [10]” was > 350 µM (not active) each time.
For the compound `Cc1ccc(OCc2cc(C(=O)N3CCN(CC(=O)NC(C)C)CC3)no2)cn1`, the IC50 in experiment [5] was > 47.1 µM (inactive). Also, the EC50 in experiment [6] was > 53 µM (inactive).
Turning to `O=C(c1cnn2c1NC(c1ccco1)CC2C(F)(F)F)N1CCN(c2cccc(Cl)c2)CC1` (stereo unspecified), the EC50 (in experiment [3]; in [4]; in the experiment with H4) was > 120 µM (not active) in each case.
Consider `O=C1/C(=C/c2nc3ccccc3[nH]2)SC(=S)N1c1ccccc1`, for which the EC50 in the experiment “cells [9]” and in “cells [10]” was > 350 µM (not active) throughout.
Take `N#Cc1cccc(NCC(=O)Nc2ccc3c(c2)OCCO3)c1`: the IC50 in experiment [5] is > 47.1 µM (inactive). In addition, the EC50 in experiment [6] is > 53 µM (inactive).
In the case of `c1ccc(-c2ccc(OCCOCCn3cncn3)cc2)cc1`, the results for the EC50 (in experiment [3]; in [4]; in the experiment with H4) were 30.9 µM (active), 45.9 µM (active) and 17.2 µM (inconclusive), respectively.
For `CCn1cc(Br)c(-c2nc3ccccc3c(=O)n2N)n1` the same measures were 102 µM (active), 8.16 µM (active) and > 120 µM (not active).
`O=C(CSc1nc(O)c2ccccc2n1)Nc1ccc(Br)cc1`: the EC50 in “cells [9]” and in the experiment “cells [10]” was > 350 µM (not active) in each case.
`O=C1N=C(N2CCCCC2)SC1=C1CCCCC1`: the EC50 is 13.8 µM (active) in experiment [3], 5.25 µM (active) in [4] and 21.5 µM (active) in the experiment with H4.
In the case of `CN(CCOC(=O)CN1C(=O)c2ccccc2C1=O)C1=NS(=O)(=O)c2ccccc21`, the EC50 in experiment [3] was > 120 µM (not active); in experiment [4], 46.8 µM (active); in the experiment on H4, > 120 µM (not active).
In the case of `Cc1csc(NC(=O)Cc2ccc(Br)cc2)n1`, the IC50 in experiment [5] is > 47.1 µM (inactive). In experiment [6], the EC50 is > 53 µM (inactive).
For `NC(=O)COC(=O)c1ccc(-c2ccc(O)cc2)cc1` the same measures were > 47.1 µM (inactive) and > 53 µM (inactive).
Turning to `Cc1cc(OC(C)C(=O)NNC(=O)Nc2ccc(F)cc2F)cc(C)c1Cl` (stereo unspecified), the EC50 in “cells [9]” and in the experiment “cells [10]” was > 350 µM (not active) throughout.
On to `O=C1/C(=C/c2ccccn2)SC(=S)N1CCc1ccccc1`, for which the EC50 in [3] is 8.16 µM (active); in experiment [4] it was 10.9 µM (active); in the experiment on H4 it was 19.4 µM (active).
Regarding `COc1ccc(NC2CCCN(C(=O)CCN3CCCO3)C2)cc1` (stereo unspecified), the IC50 in [1] is 128 µM (active).
With `COc1ccc(C2C3=C(O)CC(C)(C)CC3=Nc3c2c(=O)n(C)c(=O)n3C)cc1OC` (stereo unspecified), the IC50 in [5] was > 47.1 µM (inactive). Also, in experiment [6], the EC50 is > 53 µM (inactive).
As for `COc1ccc(NC2CCCN(C(=O)C3=NNC(=O)CC3)C2)cc1` (stereo unspecified), in experiment [1], the IC50 was 120 µM (active).
On to `Cc1noc(C)c1NC(=O)Nc1ccc2c(c1)C(=O)N([C@H](C)CO)C[C@H](C)[C@@H](CN(C)S(=O)(=O)c1ccc(F)cc1)O2`, for which, in [5], the IC50 was > 47.1 µM (inactive). Besides, in [6], the EC50 is > 53 µM (inactive).
For `CCOc1ccccc1C(=O)OCC(=O)NCC1CCCO1` (stereo unspecified) the same measures were > 47.1 µM (inactive) and > 53 µM (inactive).
For the compound `Cc1cn([C@H]2C[C@H](O)[C@@H](CNCC3=Cc4cc(O)ccc4OC3)O2)c(=O)[nH]c1=O`, the IC50 in [1] was 95.9 µM (active).
On to `CCOc1ccccc1N(CC(=O)N/N=C/c1cc(Br)ccc1OC)S(C)(=O)=O`, for which the EC50 in “cells [9]” and in “cells [10]” was > 350 µM (not active) in each case.
Consider `N#Cc1nc(Nc2cccc(Cl)c2)c2ncn(C3CCCC3)c2n1`, for which the IC50 in experiment [5] was > 47.1 µM (inactive). Moreover, in experiment [6], the EC50 was > 53 µM (inactive).

Usually CC50 stands for the concentration at which the toxic effect on the cells reaches its halfway point.

The values above are taken from ChEMBL document CHEMBL1201862, “PubChem BioAssay data set” (2004).
